ChEMBL document CHEMBL4828727, “Antibacterial and antitumoral properties of 1,2,3-triazolo fused triterpenes and their mechanism of inhibiting the proliferation of HL-60 cells” (Eur J Med Chem, 2021)
Values after ≈ are worked out from the molar mass of the structure shown. Active and inactive are the calls of the source. The rule behind the calls is not given here.

Tests used:
NCI-H460 = assay: cells; format: functional, cell-based; conditions: Homo sapiens, NCI-H460, 72 h
Description: Antiproliferative activity against human NCI-H460 cells assessed as inhibition of cell viability measured after 72 hrs by colorimetric MTS viability assay

Escherichia coli = assay: Antibacterial activity against Escherichia coli ATCC47076 assessed as growth inhibition after 20 hrs by broth microdilution method; format: functional
[1] = Antiproliferative activity against human HAP1 cells assessed as inhibition of cell viability measured after 72 hrs by colorimetric MTS viability assay; format: functional, cell-based; conditions: HAP1, 72 h
Staphylococcus aureus = assay: Antibacterial activity against Staphylococcus aureus ATCC65385 assessed as growth inhibition after 20 hrs by broth microdilution method; format: functional
Z-138 = assay: cells; format: functional, cell-based; conditions: Homo sapiens, Z-138, 72 h
Description: Antiproliferative activity against human Z138 cells assessed as inhibition of cell viability measured after 72 hrs by real-time IncuCyte proliferation analysis

CAPAN-1 = assay: cells; format: functional, cell-based; conditions: Homo sapiens, CAPAN-1, 72 h
Description: Antiproliferative activity against human CAPAN-1 cells assessed as inhibition of cell viability measured after 72 hrs by colorimetric MTS viability assay

K562 = assay: cells; format: functional, cell-based; conditions: Homo sapiens, K562, 72 h
Description: Antiproliferative activity against human K562 cells assessed as inhibition of cell viability measured after 72 hrs by real-time IncuCyte proliferation analysis

HL-60 = assay: cells; format: functional, cell-based; conditions: Homo sapiens, HL-60, 72 h
Description: Antiproliferative activity against human HL-60 cells assessed as inhibition of cell viability measured after 72 hrs by real-time IncuCyte proliferation analysis

LN-229 = assay: Antiproliferative activity against human LN-229 cells assessed as inhibition of cell viability measured after 72 hrs by colorimetric MTS viability assay; format: functional, cell-based; conditions: LN-229, 72 h
[2] = tested on: Salmonella enterica subsp. enterica; assay: Antibacterial activity against Salmonella enterica subsp.enterica ATCC13076 assessed as growth inhibition after 20 hrs by broth microdilution method; format: functional
Listeria innocua = assay: Antibacterial activity against Listeria innocua LMG11387 assessed as growth inhibition after 20 hrs by broth microdilution method; format: functional
[3] = Antiproliferative activity against human DND41 cells assessed as inhibition of cell viability measured after 72 hrs by real-time IncuCyte proliferation analysis; format: functional, cell-based; conditions: DND41, 72 h
HCT-116 = assay: Antiproliferative activity against human HCT-116 cells assessed as inhibition of cell viability measured after 72 hrs by colorimetric MTS viability assay; format: functional, cell-based; conditions: HCT-116, 72 h
Rec1 = assay: cells; format: functional, cell-based; conditions: Homo sapiens, Rec1, 72 h
Description: Cytotoxicity against human REC1 cells assessed as inhibition of cell viability measured after 72 hrs by real-time IncuCyte proliferation analysis

Jurkat = assay: cells; format: functional, cell-based; conditions: Homo sapiens, 72 h
Description: Cytotoxicity against human Jurkat cells assessed as inhibition of cell viability measured after 72 hrs by real-time IncuCyte proliferation analysis

MV4-11 = assay: cells; format: functional, cell-based; conditions: Homo sapiens, MV4-11, 72 h
Description: Cytotoxicity against human MV4-11cells assessed as inhibition of cell viability measured after 72 hrs by real-time IncuCyte proliferation analysis

IC50 (NCI-H460) [µM]	MIC50 (Escherichia coli)	MIC50 (Staphylococcus aureus)	IC50 (Z-138) [µM]	IC50 (CAPAN-1) [µM]	IC50 (K562) [µM]	IC50 (HL-60) [µM]	MIC50 [2]	MIC50 (Listeria innocua)	IC50 (HCT-116) [µM]	IC50 (Rec1) [µM]	IC50 (Jurkat) [µM]	IC50 (MV4-11) [µM]	Compound	IC50 [1] [µM]	IC50 (LN-229) [µM]	IC50 [3] [µM]
> 100	17.7 mg/L (≈ 27.7 µM)	inactive	> 100	> 100	> 100	> 100	17.3 mg/L (≈ 27 µM)	429 mg/L (≈ 672 µM)	> 100	–	–	–	C=C(C)[C@@H]1CC[C@]2(CO)CC[C@]3(C)[C@H](CC[C@@H]4[C@@]5(C)Cc6nnn(CCc7c[nH]c8ccc(OC)cc78)c6C(C)(C)[C@@H]5CC[C@]43C)[C@@H]12	> 100	> 100	> 100
10.6	95.8 mg/L (≈ 157 µM)	180 mg/L (≈ 296 µM)	9.9	6.7	68.2	9.7	88.7 mg/L (≈ 146 µM)	237 mg/L (≈ 390 µM)	12.6	2.6	5.3	22.1	CC1(C)CC[C@]2(C(=O)O)CC[C@]3(C)C(=CC[C@@H]4[C@@]5(C)Cc6nnn(Cc7cccc8[nH]ccc78)c6C(C)(C)[C@@H]5CC[C@]43C)[C@@H]2C1	9.7	47.2	11
> 100	392 mg/L (≈ 859 µM)	1.16 mg/L (≈ 2.54 µM)	> 100	50.1	> 100	36.4	inactive	21.4 mg/L (≈ 46.7 µM)	32.4	–	–	–	CC1(C)CC[C@]2(C(=O)O)CC[C@]3(C)C(=CC[C@@H]4[C@@]5(C)CC[C@H](O)C(C)(C)[C@@H]5CC[C@]43C)[C@@H]2C1 [OLEANOLIC_ACID]	> 100	> 100	65.5
> 100	99.8 mg/L (≈ 168 µM)	inactive	> 100	> 100	> 100	> 100	55.5 mg/L (≈ 93.3 µM)	379 mg/L (≈ 636 µM)	> 100	–	–	–	C=C(C)[C@@H]1CC[C@]2(CO)CC[C@]3(C)[C@H](CC[C@@H]4[C@@]5(C)Cc6nnn(Cc7cccc8[nH]ccc78)c6C(C)(C)[C@@H]5CC[C@]43C)[C@@H]12	> 100	> 100	> 100
8.3	41.6 mg/L (≈ 68.3 µM)	95.5 mg/L (≈ 157 µM)	10.3	4.1	86.1	7	33 mg/L (≈ 54.1 µM)	193 mg/L (≈ 317 µM)	12	2	3.7	12.8	CC1(C)CC[C@]2(C(=O)O)CC[C@]3(C)C(=CC[C@@H]4[C@@]5(C)Cc6nnn(Cc7ccc8[nH]ccc8c7)c6C(C)(C)[C@@H]5CC[C@]43C)[C@@H]2C1	3.3	37.7	12.1
9.2	409 mg/L (≈ 672 µM)	23.1 mg/L (≈ 38 µM)	10.1	3.6	> 100	2.7	inactive	51.3 mg/L (≈ 84.2 µM)	15.6	2.8	4.1	14.1	C[C@H]1[C@H](C)CC[C@]2(C(=O)O)CC[C@]3(C)C(=CC[C@@H]4[C@@]5(C)Cc6nnn(Cc7cccc8[nH]ccc78)c6C(C)(C)[C@@H]5CC[C@]43C)[C@H]12	8.8	63.5	10.1
–	–	3.41 mg/L (≈ 10.3 µM)	–	–	–	–	0.37 mg/L (≈ 1.12 µM)	138 mg/L (≈ 416 µM)	–	–	–	–	O=C(O)c1cn(C2CC2)c2cc(N3CCNCC3)c(F)cc2c1=O [CIPROFLOXACIN]	–	–	–
16.2	inactive	1.56 mg/L (≈ 3.42 µM)	9.8	8.6	10.2	9.5	inactive	27 mg/L (≈ 59.2 µM)	17.7	–	–	–	C[C@H]1[C@H](C)CC[C@]2(C(=O)O)CC[C@]3(C)C(=CC[C@@H]4[C@@]5(C)CC[C@H](O)C(C)(C)[C@@H]5CC[C@]43C)[C@H]12 [URSOLIC ACID]	71.1	47.4	13.7
> 100	84.7 mg/L (≈ 142 µM)	233 mg/L (≈ 392 µM)	> 100	> 100	> 100	> 100	43 mg/L (≈ 72.3 µM)	195 mg/L (≈ 328 µM)	> 100	–	–	–	C=C(C)[C@@H]1CC[C@]2(CO)CC[C@]3(C)[C@H](CC[C@@H]4[C@@]5(C)Cc6nnn(Cc7ccc8cc[nH]c8c7)c6C(C)(C)[C@@H]5CC[C@]43C)[C@@H]12	> 100	> 100	> 100
> 100	40.8 mg/L (≈ 67.1 µM)	199 mg/L (≈ 327 µM)	67.4	9.4	69.2	3.3	29 mg/L (≈ 47.6 µM)	90 mg/L (≈ 148 µM)	11	1.8	2.2	21.5	CC1(C)CC[C@]2(C(=O)O)CC[C@]3(C)C(=CC[C@@H]4[C@@]5(C)Cc6nnn(Cc7ccc8cc[nH]c8c7)c6C(C)(C)[C@@H]5CC[C@]43C)[C@@H]2C1	9.2	44.4	> 100
> 100	56.7 mg/L (≈ 98.8 µM)	inactive	> 100	> 100	> 100	> 100	48.1 mg/L (≈ 83.8 µM)	inactive	> 100	–	–	–	C=C(C)[C@@H]1CC[C@]2(CO)CC[C@]3(C)[C@H](CC[C@@H]4[C@@]5(C)Cc6nnn(Cc7ccc(F)cc7)c6C(C)(C)[C@@H]5CC[C@]43C)[C@@H]12	10.3	> 100	> 100
> 100	70.6 mg/L (≈ 121 µM)	inactive	> 100	> 100	> 100	> 100	32.3 mg/L (≈ 55.1 µM)	inactive	> 100	–	–	–	C=C(C)[C@@H]1CC[C@]2(CO)CC[C@]3(C)[C@H](CC[C@@H]4[C@@]5(C)Cc6nnn(Cc7ccc(OC)cc7)c6C(C)(C)[C@@H]5CC[C@]43C)[C@@H]12	> 100	> 100	> 100
> 100	34.3 mg/L (≈ 56.7 µM)	180 mg/L (≈ 298 µM)	61.5	25.8	> 100	56	25.2 mg/L (≈ 41.8 µM)	367 mg/L (≈ 608 µM)	63.8	–	–	–	CC1(C)CC[C@]2(C(=O)O)CC[C@]3(C)C(=CC[C@@H]4[C@@]5(C)Cc6nnn(Cc7ccc(Cl)cc7)c6C(C)(C)[C@@H]5CC[C@]43C)[C@@H]2C1	> 100	67.1	64.3
> 100	> 20.9 mg/L	inactive	> 100	> 100	> 100	> 100	16.6 mg/L (≈ 27.3 µM)	inactive	> 100	–	–	–	C=C(C)[C@@H]1CC[C@]2(CO)CC[C@]3(C)[C@H](CC[C@@H]4[C@@]5(C)Cc6nnn(CCc7c[nH]c8ccccc78)c6C(C)(C)[C@@H]5CC[C@]43C)[C@@H]12	> 100	> 100	> 100
> 100	96.3 mg/L (≈ 162 µM)	345 mg/L (≈ 580 µM)	> 100	> 100	> 100	> 100	62 mg/L (≈ 104 µM)	187 mg/L (≈ 315 µM)	> 100	–	–	–	C=C(C)[C@@H]1CC[C@]2(CO)CC[C@]3(C)[C@H](CC[C@@H]4[C@@]5(C)Cc6nnn(Cc7ccc8[nH]ccc8c7)c6C(C)(C)[C@@H]5CC[C@]43C)[C@@H]12	> 100	> 100	> 100

Compound	IC50 (NCI-H460) [µM]	MIC50 (Escherichia coli)	MIC50 (Staphylococcus aureus)	IC50 (Z-138) [µM]	IC50 (CAPAN-1) [µM]	IC50 (K562) [µM]	IC50 (HL-60) [µM]	MIC50 [2]	MIC50 (Listeria innocua)	IC50 (HCT-116) [µM]	IC50 (Rec1) [µM]	IC50 (Jurkat) [µM]	IC50 (MV4-11) [µM]	IC50 [1] [µM]	IC50 (LN-229) [µM]	IC50 [3] [µM]
CN[C@@H]1C[C@H]2O[C@@](C)([C@@H]1OC)n1c3ccccc3c3c4c(c5c6ccccc6n2c5c31)C(=O)NC4 [STAUROSPORINE]	–	–	–	–	–	–	–	–	–	0.0481	–	–	–	0.0491	0.0097	0.0308
C=C(C)[C@@H]1CC[C@]2(CO)CC[C@]3(C)[C@H](CC[C@@H]4[C@@]5(C)CC[C@H](O)C(C)(C)[C@@H]5CC[C@]43C)[C@@H]12 [BETULIN]	> 100	inactive	248 mg/L (≈ 559 µM)	> 100	> 100	> 100	> 100	inactive	398 mg/L (≈ 899 µM)	> 100	–	–	–	> 100	> 100	> 100
